From PubChem BioAssay AID2061108 (Research group of Professor Matthew Todd, School of …, 2025)
The source made the active and inactive calls. No rule for the calls is given here.

Assays:
Test in all cases: microbial growth inhibition plus red cell haemolysis – Idler compounds, first plate, PMBN-permeabilized strains, profiling panel (AID 2061108)
Parameters in all cases: haemolysis: dose or concentration left out as unconfirmed
[1] = tested on: A. baumannii ATCC 17978 + PMBN growth inhibition, 100 uM; conditions: A. baumannii plus PMBN growth inhibition, 100 µM; stronger effect = higher value
[2] = tested on: S. aureus ATCC 9144 growth inhibition, 100 uM; conditions: S. aureus ATCC 9144 growth inhibition; at 100 µM; stronger effect = higher value
[3] = tested on: M. abscessus growth inhibition, 10 uM; conditions: S. aureus ATCC 9144 growth inhibition; measured here: M. abscessus; at 10 µM
[4] = tested on: A. baumannii ATCC 17978 growth inhibition, 100 uM; conditions: S. aureus ATCC 9144 growth inhibition; measured here: A. baumannii ATCC 17978; at 100 µM; stronger effect = higher value
[5] = tested on: red blood cell haemolysis; conditions: stronger effect = higher value; dose or concentration not given here
[6] = tested on: C. albicans NCPF 3281 growth inhibition, 100 uM; conditions: S. aureus ATCC 9144 growth inhibition; measured here: C. albicans NCPF 3281; at 100 µM; stronger effect = higher value
[7] = tested on: M. avium growth inhibition, 10 uM; conditions: M. avium growth inhibition, 10 µM
[8] = tested on: E. coli NCTC 12923 growth inhibition, 100 uM; conditions: E. coli NCTC 12923 growth inhibition, 100 µM; stronger effect = higher value
[9] = tested on: E. coli NCTC 12923 + PMBN growth inhibition, 100 uM; conditions: S. aureus ATCC 9144 growth inhibition; measured here: E. coli plus PMBN; at 100 µM; stronger effect = higher value

Row | SMILES | inhibition [1] [%] | inhibition [2] | inhibition [3] [%] | inhibition [4] [%] | haemolysis [5] [%] | inhibition [6] [%] | inhibition [7] [%] | inhibition [8] [%] | inhibition [9] [%]
1 | CC(N)C(=O)NS(=O)(=O)c1cccc(-c2cc3ncnc(N)c3s2)c1 (configuration not stated) | -25.6 | -35.4% (inactive) | -0.285 | -14.5 | 0.129 | -29.6 | 45.2 | -32.4 | -31.8
2 | CC(C)c1cc(Nc2nc(N[C@@H](CO)C3CCCCC3)nc3[nH]ncc23)n[nH]1 | 57.6 | -3.86% | -0.415 | -4.22 | 1.61 | -64 | 0.54 | -18.2 | 99.1
3 | COc1ccc2c(c1)nc(-c1c[nH]c3cc(N4CCOCC4)ccc13)c1[nH]ccc12 | 95.9 | 101% | 0.186 | 53.1 | 0.675 | -104 | 1.53 | 14.1 | 98.5
4 | CC(C)NC(=O)Nc1cccc(C(=O)NC(C)c2cccc(Br)c2)c1 (configuration not stated) | 34.3 | 3.67% (inactive) | -1.08 | 4.29 | -0.0024 | 26.3 | -5.32 | -0.541 | 28.6
5 | Cc1cc(NC(=O)c2ccc(F)c(C(C)(C)C#N)c2)nn1C | 22.3 | 1.75% (inactive) | 0.104 | -0.843 | 0.0361 | -51.4 | -0.0495 | -2.97 | -1.71
6 | O=C(c1ccccc1)c1ccc(NS(=O)(=O)c2cccc(Cl)c2)cc1 | 80.1 | 64.6% | -0.368 | 15.2 | 0.625 | -41.2 | 0.0647 | 4.05 | 86.3
7 | O=S(=O)(F)c1cccc(NCc2ccc(F)cc2)n1 | 16.7 | 13% (inactive) | -1.1 | -3.33 | -0.396 | -98.2 | 1.19 | -1.49 | 0.494
8 | Cn1nc(C(C)(C)C)cc1NC(=O)Nc1ccc(Cl)cc1 | 83 | -18.4% | -0.347 | -12 | 0.904 | -75.2 | 0.442 | 12.6 | 99.4
9 | N#CC1(c2cccc(-c3cccc4c3CCOC4C(=O)O)c2)CC1 (configuration not stated) | 20.9 | -2.28% (inactive) | 0.107 | -4.34 | 0.0202 | -60.5 | -1.43 | -6.62 | -11.3
10 | CC(C)C(N)C(=O)NS(=O)(=O)c1cccc(-c2cc3ncnc(N)c3s2)c1 (configuration not stated) | -10.9 | -22.3% (inactive) | -0.361 | -15.1 | 0.218 | -123 | 16.2 | -28.5 | -17.2
11 | O=C(N1CCCCC1)N1CCCCC1Cc1ccccc1 (configuration not stated) | 16.8 | 7% (inactive) | -0.54 | -2.26 | -0.191 | -79.6 | 0.89 | -3.65 | 18.1
12 | O=S(=O)(NC1(Cc2ccc(Cl)cc2Cl)CCC1)c1ccc(-c2nn[nH]n2)cc1 | 65.8 | 17% (inactive) | -1.11 | 22.7 | -0.271 | -103 | 0.393 | 0.135 | 22.2
13 | NC(=O)C1CCN(c2nc(OCc3ccc(F)nc3)nc(N3CCn4c(nnc4C(F)(F)F)C3)n2)CC1 | 11.7 | 16.7% (inactive) | 0.0526 | -4.58 | 0.123 | -84 | 1.56 | -2.57 | -3.54
14 | Cn1nc(NC(=O)Nc2ccc(Cl)cc2)cc1C(C)(C)C | -3 | -14.7% (inactive) | -0.422 | -22 | 0.275 | -94 | 0.567 | -25 | -30.4
15 | O=C(N/N=C/c1ccc2cccc(O)c2n1)c1ccncc1 | 37.1 | 23.3% (inactive) | -0.775 | 13.7 | 0.565 | -33.7 | -0.55 | 8.65 | -1.73
16 | O=C(NC1(c2ccc(Cl)cc2)COC1)c1ccc(N2CCCCC2)cc1 | 13.9 | 4.21% (inactive) | -0.149 | -22.2 | 0.302 | -54.3 | 0.252 | -30 | -14
17 | COc1ccc2c(c1)nc(-c1c[nH]c3ccc(N4CCSCC4)cc13)c1[nH]ccc12 | 96.3 | 98.1% | 0.136 | 98.1 | 1.04 | 95 | 3 | 9.46 | 97
18 | O=C(Nc1ccc(Oc2ccccc2)cc1)c1cccc(-c2nn[nH]n2)c1 | 18.8 | 9.5% (inactive) | -0.704 | -3.57 | 1.82 | -19 | 0.254 | -9.59 | 5.93
19 | CC(C)c1conc1CNc1ccnc(S(=O)(=O)F)c1 | 13 | 16.8% (inactive) | -1.22 | -0.119 | -0.292 | 11.6 | 0.196 | -1.22 | -0.37
20 | N#Cc1c(N2Cc3cccc(O)c3C2)nc2ccccc2c1C(F)(F)F | 33.9 | 97% | -1.26 | 23.8 | -0.139 | 3.66 | 0.654 | 2.16 | 35.4
21 | O=C(NC1(c2ccc(Br)cc2)COC1)c1ccc(N2CCOCC2)cc1 | 17.5 | 5.33% (inactive) | -1 | 1.43 | 0.177 | -56.4 | -0.734 | -5.27 | 4.32
22 | Cc1ncsc1CCCN(C)c1cnc(S(=O)(=O)F)c(Br)c1 | 21.9 | 16.7% (inactive) | -0.937 | -2.86 | 0.616 | -94.3 | 0.0507 | 1.49 | 0.37
23 | CC(C)CC(N)C(=O)NS(=O)(=O)c1cccc(-c2cc3ncnc(N)c3s2)c1 (configuration not stated) | -8.7 | -17.7% (inactive) | -0.687 | -8.69 | -0.408 | 43.5 | 12 | -84.3 | -22.3
24 | O=C(Nc1nnc2ccccn12)c1ccc2cccc(Cl)c2n1 | -14.2 | -41.5% (inactive) | -0.577 | -14.5 | 2.79 | 25.9 | -0.879 | -51.6 | -43.8
25 | N#Cc1cc(-c2cccc(Cl)c2)no1 | 26.6 | 15.6% (inactive) | 0.0599 | -0.723 | 6.05 | -135 | 0.349 | -0.811 | 1.71
26 | Cc1ccc(CN2C(=O)NC3(CCN(C(=O)C(C)Oc4ccccc4)CC3)C2=O)cc1 (configuration not stated) | 22.5 | 8.83% (inactive) | -1.03 | -7.26 | -0.00857 | -57.6 | -0.615 | -2.03 | 22.5
27 | CCOc1ccc2ncc(C#N)c(N3CCC(C(=O)NCc4ccccc4F)CC3)c2c1 | 1 | -21.2% (inactive) | -0.367 | -5.66 | 0.211 | -38.3 | -1.25 | -44.6 | -24
28 | COc1cccc(C(=O)Nc2nc3cc(Cl)c(OC)cc3s2)c1 | 19.1 | 2.28% (inactive) | -0.266 | -4.34 | 4.42 | -74.4 | 0.396 | -30.8 | -13.2
